Laboratory results taken from patent US10336697B2, “Spiro[cyclobutane-1,3′-indolin]-2′-one derivatives as bromodomain inhibitors” (Orion Corporation, priority 2015, dated 2019).

These molecules were tested against Bet BRD4 full length bromo-domain protein (Homo sapiens, UniProt O60885) (assay: Bet bromodomain TR-FRET assay (displacement of acetyl histone peptide)). Conditions: Bet BRD4 full length bromodomain protein, 300 nM acetyl histone peptide substrate, read-out: IC50.
Type: binding

Row | SMILES | IC50 [nM]
1 | O=C1Nc2c(OC3CCOCC3)cc(NS(=O)(=O)c3ccc(Cl)cc3F)cc2C12CCC2 [Compound 142, 4-Chloro-2-fluoro-N-(2′-oxo-7′-((tetrahydro-2H-pyran-4-yl)oxy)spiro[cyclobutane-1,3′-indolin]-5′-yl)benzenesulfonamide] | < 600
2 | O=C1Nc2c(OC3CCC(F)(F)CC3)cc(NS(=O)(=O)c3ccc(Cl)cc3F)cc2C12CCC2 [Compound 175, 4-Chloro-N-(7′-((4,4-difluorocyclohexyl)oxy)-2′-oxospiro [cyclobutane-1,3′-indolin]-5′-yl)-2-fluorobenzenesulfonamide] | 600 to 1000
3 | C=CCCNc1cc(NS(=O)(=O)c2ccccc2OC)cc2c1NC(=O)C21CCC1 [Compound 14, N-(7′-(but-3-en-1-ylamino)-2′-oxospiro[cyclobutane-1,3′-indolin]-5′-yl)-2-methoxybenzenesulfonamide] | < 600
4 | CNCCOc1cc(NS(=O)(=O)c2ccccc2OC)cc2c1NC(=O)C21CCC1 [compound 204, 2-Methoxy-N-(7′-(2-(methylamino)ethoxy)-2′-oxospiro[cyclobutane-1,3′-indolin]-5′-yl)benzenesulfonamide] | < 600
5 | COc1ccccc1S(=O)(=O)Nc1cc(OC2CCN(C3CC3)CC2)c2c(c1)C1(CCC1)C(=O)N2 [Compound 137, N-(7′-((1-cyclopropylpiperidin-4-yl)oxy)-2′-oxospiro[cyclobutane-1,3′-indolin]-5′-yl)-2-methoxybenzenesulfonamide] | < 600
6 | COc1ccccc1S(=O)(=O)Nc1cc(OCC2CCN(C)CC2)c2c(c1)C1(CCC1)C(=O)N2 [Compound 146, 2-Methoxy-N-(7′-((1-methylpiperidin-4-yl)methoxy)-2′-oxospiro[cyclobutane-1,3′-indolin]-5′-yl)benzenesulfonamide] | < 600
7 | CN1CCN(C(=O)c2cc(NS(=O)(=O)c3ccc(F)cc3F)cc3c2NC(=O)C32CCC2)CC1 [Compound 47, 2,4-Difluoro-N-(7′-(4-methylpiperazine-1-carbonyl)-2′-oxospiro[cyclobutane-1,3′-indolin]-5′-yl)benzenesulfonamide] | > 1000
8 | CN1CCC(Nc2cc(NS(=O)(=O)c3ccc(F)cc3F)cc3c2NC(=O)C32CCC2)CC1 [Compound 17, 2,4-Difluoro-N-(7′-((1-methylpiperidin-4-yl)amino)-2′-oxospiro[cyclobutane-1,3′-indolin]-5′-yl)benzenesulfonamide] | < 600

Results, then the molecule that gave them:

Row | IC50 [nM] | SMILES
9 | < 600 | COc1ccccc1S(=O)(=O)Nc1cc(OC(C)c2ccccn2)c2c(c1)C1(CCC1)C(=O)N2 (single isomer, unassigned) [Compound 151, 2-Methoxy-N-(2′-oxo-7′-(1-(pyridin-2-yl)ethoxy)spiro[cyclobutane-1,3′-indolin]-5′-yl)benzenesulfonamide]
10 | 600 to 1000 | O=C(Nc1ccccn1)c1cc(NS(=O)(=O)c2ccc(F)cc2F)cc2c1NC(=O)C21CCC1 [Compound 49, 5′-(2,4-Difluorophenylsulfonamido)-2′-oxo-N-(pyridin-2-yl)spiro[cyclobutane-1,3′-indoline]-7′-carboxamide]
11 | < 600 | CN1CCC(Oc2cc(NS(=O)(=O)c3ccc(Cl)cc3F)cc3c2NC(=O)C32CCC2)C1 (stereo not shown) [Compound 138, 4-Chloro-2-fluoro-N-(7′-((1-methylpyrrolidin-3-yl)oxy)-2′-oxospiro[cyclobutane-1,3′-indolin]-5′-yl)benzenesulfonamide]
12 | > 1000 | O=C1Nc2c(NC3CCCCC3)cc(NS(=O)(=O)c3ccc(F)cc3F)cc2C12CCC2 [Compound 20, N-(7′-(cyclohexylamino)-2′-oxospiro[cyclobutane-1,3′-indolin]-5′-yl)-2,4-difluorobenzenesulfonamide]
13 | < 600 | COc1ccccc1S(=O)(=O)Nc1cc(C(C)c2cccnc2)c2c(c1)C1(CCC1)C(=O)N2 (stereo not shown) [Compound 122, 2-Methoxy-N-(2′-oxo-7′-(1-(pyridin-3-yl)ethyl)spiro[cyclobutane-1,3′-indolin]-5′-yl)benzenesulfonamide]
